{"source": "PubChem BioAssay AID1845203", "about": "(Molecular Pharmacology Branch, DTP, NCI, 2023)", "test_system": "G-401 tumor spheroids, viability % test/control", "test": "Anticancer human tumor G-401 cell line growth inhibition;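 on all read-outs here: spheroids exposed to compound for 7 days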;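 on viability, T/C: 100% = DMSO vehicle-treated spheroids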", "settings": "spheroids with HUVEC and MSC; for viability, T/C: stronger effect = lower value", "procedure,_shortened": "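Complex spheroids of malignant cells with endothelial cells and mesenchymal stem cells; agents alone or combined, from near clinical Cmax (or 10 microM if unknown) down in half-log steps, 0.25% DMSO final.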", "key": {"[1]": {"settings": "curve of first compound, second compound 0.003 µM"}, "[2]": {"settings": "second compound 0.003 µM, first compound 0.00949 µM"}, "[3]": {"settings": "second compound 0.003 µM, first compound 0.03 µM"}, "[4]": {"settings": "second compound 0.003 µM, first compound 0.0949 µM"}, "[5]": {"settings": "second compound 0.003 µM, first compound 0.3 µM"}, "[6]": {"settings": "second compound 0.003 µM, first compound 0.949 µM"}, "[7]": {"settings": "second compound 0.003 µM, first compound 3 µM"}}, "note": "“And” between values parts separate entries of the source, which are not always exact repeats. Equal entries are not always repeated."}
{"smiles": "Cn1ncnc1[C@H]1c2n[nH]c(=O)c3cc(F)cc(c23)N[C@@H]1c1ccc(F)cc1", "values": [{"measurement": "viability, T/C", "setting": "compound 0.00949 µM", "value": "70.3% and 90% and 80.4%"}, {"measurement": "viability, T/C", "setting": "compound 0.03 µM", "value": "54.4% and 75.6% and 67%"}, {"measurement": "viability, T/C", "setting": "compound 0.0949 µM", "value": "43.7% and 56% and 56.1%"}, {"measurement": "viability, T/C", "setting": "compound 0.3 µM", "value": "28.6% and 38.6% and 34.7%"}, {"measurement": "viability, T/C", "setting": "compound 0.949 µM", "value": "17.3% and 23.2% and 21.1%"}, {"measurement": "viability, T/C", "setting": "compound 3 µM", "value": "12.2% and 14.5% and 11.7%"}, {"measurement": "IC50", "setting": "curve of compound", "value": "0.049 µM and 0.143 µM and 0.12 µM"}]}
{"smiles": "Cn1ncnc1[C@H]1c2n[nH]c(=O)c3cc(F)cc(c23)N[C@@H]1c1ccc(F)cc1", "note": "+ CC[C@@]1(O)C(=O)OCc2c1cc1n(c2=O)Cc2cc3c(CN(C)C)c(O)ccc3nc2-1", "values": [{"measurement": "IC50", "setting": "[1]", "value": "< 0.00949", "unit": "µM"}, {"measurement": "IC50", "setting": "curve of first compound, second compound 0.00949 µM", "value": "< 0.00949", "unit": "µM"}, {"measurement": "IC50", "setting": "curve of first compound, second compound 0.03 µM", "value": "< 0.00949", "unit": "µM"}, {"measurement": "IC50", "setting": "curve of first compound, second compound 0.0949 µM", "value": "< 0.00949", "unit": "µM"}, {"measurement": "IC50", "setting": "curve of first compound, second compound 0.3 µM", "value": "< 0.00949", "unit": "µM"}, {"measurement": "viability, T/C", "setting": "[2]", "value": 30.3, "unit": "%"}, {"measurement": "viability, T/C", "setting": "[3]", "value": 25.3, "unit": "%"}, {"measurement": "viability, T/C", "setting": "[4]", "value": 22.9, "unit": "%"}, {"measurement": "viability, T/C", "setting": "[5]", "value": 14.9, "unit": "%"}, {"measurement": "viability, T/C", "setting": "[6]", "value": 13.6, "unit": "%"}, {"measurement": "viability, T/C", "setting": "[7]", "value": 8.75, "unit": "%"}, {"measurement": "viability, T/C", "setting": "second compound 0.00949 µM, first compound 0.00949 µM", "value": 14.6, "unit": "%"}, {"measurement": "viability, T/C", "setting": "second compound 0.00949 µM, first compound 0.03 µM", "value": 14.9, "unit": "%"}, {"measurement": "viability, T/C", "setting": "second compound 0.00949 µM, first compound 0.0949 µM", "value": 11.5, "unit": "%"}, {"measurement": "viability, T/C", "setting": "second compound 0.00949 µM, first compound 0.3 µM", "value": 10.4, "unit": "%"}, {"measurement": "viability, T/C", "setting": "second compound 0.00949 µM, first compound 0.949 µM", "value": 8.82, "unit": "%"}, {"measurement": "viability, T/C", "setting": "second compound 0.00949 µM, first compound 3 µM", "value": 7.7, "unit": "%"}, {"measurement": "viability, T/C", "setting": "second compound 0.03 µM, first compound 0.00949 µM", "value": 8.82, "unit": "%"}, {"measurement": "viability, T/C", "setting": "second compound 0.03 µM, first compound 0.03 µM", "value": 7.7, "unit": "%"}, {"measurement": "viability, T/C", "setting": "second compound 0.03 µM, first compound 0.0949 µM", "value": 6.78, "unit": "%"}, {"measurement": "viability, T/C", "setting": "second compound 0.03 µM, first compound 0.3 µM", "value": 6.5, "unit": "%"}, {"measurement": "viability, T/C", "setting": "second compound 0.03 µM, first compound 0.949 µM", "value": 6.42, "unit": "%"}, {"measurement": "viability, T/C", "setting": "second compound 0.03 µM, first compound 3 µM", "value": 5.33, "unit": "%"}, {"measurement": "viability, T/C", "setting": "second compound 0.0949 µM, first compound 0.00949 µM", "value": 6.07, "unit": "%"}, {"measurement": "viability, T/C", "setting": "second compound 0.0949 µM, first compound 0.03 µM", "value": 5.84, "unit": "%"}, {"measurement": "viability, T/C", "setting": "second compound 0.0949 µM, first compound 0.0949 µM", "value": 6.01, "unit": "%"}, {"measurement": "viability, T/C", "setting": "second compound 0.0949 µM, first compound 0.3 µM", "value": 5.6, "unit": "%"}, {"measurement": "viability, T/C", "setting": "second compound 0.0949 µM, first compound 0.949 µM", "value": 5.23, "unit": "%"}, {"measurement": "viability, T/C", "setting": "second compound 0.0949 µM, first compound 3 µM", "value": 3.98, "unit": "%"}, {"measurement": "viability, T/C", "setting": "second compound 0.3 µM, first compound 0.00949 µM", "value": 4.4, "unit": "%"}, {"measurement": "viability, T/C", "setting": "second compound 0.3 µM, first compound 0.03 µM", "value": 4.94, "unit": "%"}, {"measurement": "viability, T/C", "setting": "second compound 0.3 µM, first compound 0.0949 µM", "value": 4.58, "unit": "%"}, {"measurement": "viability, T/C", "setting": "second compound 0.3 µM, first compound 0.3 µM", "value": 4.17, "unit": "%"}, {"measurement": "viability, T/C", "setting": "second compound 0.3 µM, first compound 0.949 µM", "value": 3.92, "unit": "%"}, {"measurement": "viability, T/C", "setting": "second compound 0.3 µM, first compound 3 µM", "value": 2.85, "unit": "%"}]}
{"smiles": "CNCc1ccc(-c2cc(-c3nc(-c4ccc(S(=O)(=O)C(C)C)cc4)cnc3N)on2)cc1", "note": "+ COc1cc2c(cc1O)CCNC21CSC2c3c(OC(C)=O)c(C)c4c(c3C(COC1=O)N1C(O)C3Cc5cc(C)c(OC)c(O)c5C(C21)N3C)OCO4", "values": [{"measurement": "IC50", "setting": "curve of first compound, second compound 30 pM", "value": 1.42, "unit": "µM"}, {"measurement": "IC50", "setting": "curve of first compound, second compound 94.9 pM", "value": 0.529, "unit": "µM"}, {"measurement": "IC50", "setting": "curve of first compound, second compound 0.0003 µM", "value": 0.0103, "unit": "µM"}, {"measurement": "IC50", "setting": "curve of first compound, second compound 0.000949 µM", "value": "< 0.00949", "unit": "µM"}, {"measurement": "IC50", "setting": "[1]", "value": "< 0.00949", "unit": "µM"}, {"measurement": "viability, T/C", "setting": "second compound 30 pM, first compound 0.00949 µM", "value": 100, "unit": "%"}, {"measurement": "viability, T/C", "setting": "second compound 30 pM, first compound 0.03 µM", "value": 95.5, "unit": "%"}, {"measurement": "viability, T/C", "setting": "second compound 30 pM, first compound 0.0949 µM", "value": 103, "unit": "%"}, {"measurement": "viability, T/C", "setting": "second compound 30 pM, first compound 0.3 µM", "value": 88.7, "unit": "%"}, {"measurement": "viability, T/C", "setting": "second compound 30 pM, first compound 0.949 µM", "value": 58.4, "unit": "%"}, {"measurement": "viability, T/C", "setting": "second compound 30 pM, first compound 3 µM", "value": 35, "unit": "%"}, {"measurement": "viability, T/C", "setting": "second compound 94.9 pM, first compound 0.00949 µM", "value": 94.4, "unit": "%"}, {"measurement": "viability, T/C", "setting": "second compound 94.9 pM, first compound 0.03 µM", "value": 94.8, "unit": "%"}, {"measurement": "viability, T/C", "setting": "second compound 94.9 pM, first compound 0.0949 µM", "value": 89.9, "unit": "%"}, {"measurement": "viability, T/C", "setting": "second compound 94.9 pM, first compound 0.3 µM", "value": 60.5, "unit": "%"}, {"measurement": "viability, T/C", "setting": "second compound 94.9 pM, first compound 0.949 µM", "value": 39.5, "unit": "%"}, {"measurement": "viability, T/C", "setting": "second compound 94.9 pM, first compound 3 µM", "value": 25.8, "unit": "%"}, {"measurement": "viability, T/C", "setting": "second compound 0.0003 µM, first compound 0.00949 µM", "value": 48, "unit": "%"}, {"measurement": "viability, T/C", "setting": "second compound 0.0003 µM, first compound 0.03 µM", "value": 51.4, "unit": "%"}, {"measurement": "viability, T/C", "setting": "second compound 0.0003 µM, first compound 0.0949 µM", "value": 38.2, "unit": "%"}, {"measurement": "viability, T/C", "setting": "second compound 0.0003 µM, first compound 0.3 µM", "value": 25.9, "unit": "%"}, {"measurement": "viability, T/C", "setting": "second compound 0.0003 µM, first compound 0.949 µM", "value": 24.1, "unit": "%"}, {"measurement": "viability, T/C", "setting": "second compound 0.0003 µM, first compound 3 µM", "value": 18.6, "unit": "%"}, {"measurement": "viability, T/C", "setting": "second compound 0.000949 µM, first compound 0.00949 µM", "value": 9.02, "unit": "%"}, {"measurement": "viability, T/C", "setting": "second compound 0.000949 µM, first compound 0.03 µM", "value": 10.5, "unit": "%"}, {"measurement": "viability, T/C", "setting": "second compound 0.000949 µM, first compound 0.0949 µM", "value": 12.2, "unit": "%"}, {"measurement": "viability, T/C", "setting": "second compound 0.000949 µM, first compound 0.3 µM", "value": 18.3, "unit": "%"}, {"measurement": "viability, T/C", "setting": "second compound 0.000949 µM, first compound 0.949 µM", "value": 19.3, "unit": "%"}, {"measurement": "viability, T/C", "setting": "second compound 0.000949 µM, first compound 3 µM", "value": 9.87, "unit": "%"}, {"measurement": "viability, T/C", "setting": "[2]", "value": 0.14, "unit": "%"}, {"measurement": "viability, T/C", "setting": "[3]", "value": 0.14, "unit": "%"}, {"measurement": "viability, T/C", "setting": "[4]", "value": 0.22, "unit": "%"}, {"measurement": "viability, T/C", "setting": "[5]", "value": 0.29, "unit": "%"}, {"measurement": "viability, T/C", "setting": "[6]", "value": 0.89, "unit": "%"}, {"measurement": "viability, T/C", "setting": "[7]", "value": 0.21, "unit": "%"}]}
